According to ChEMBL document CHEMBL3734649, “H2O-mediated isatin spiro-epoxide ring opening with NaCN: Synthesis of novel 3-tetrazolylmethyl-3-hydroxy-oxindole hybrids and their anticancer evaluation” (Eur J Med Chem, 2015):
Active and inactive are the calls of the source. The rule behind the calls is not given here.

Legend:
[1] = Anticancer activity against human BT549 cells after 48 hrs by MTT assay; type: functional, cell-based; details: BT-549, 48 h
[2] = Anticancer activity against human PC3 cells after 48 hrs by MTT assay; type: functional, cell-based; details: PC-3, 48 h
[3] = system: MDA-MB-231; test: Anticancer activity against human MDA-MB-231 cells after 48 hrs by MTT assay; type: functional, cell-based; details: MDA-MB-231, 48 h
[4] = Anticancer activity against human DU145 cells after 48 hrs by MTT assay; type: functional, cell-based; details: DU-145, 48 h
[5] = Anticancer activity against human PA1 cells after 48 hrs by MTT assay; type: functional, cell-based; details: PA-1, 48 h
[6] = Cytotoxicity against human RWPE1 cells after 48 hrs by MTT assay; type: cell-based; details: RWPE-1, 48 h
[7] = system: DU-145; test: Induction of apoptosis in human DU145 cells assessed as late apoptotic cells at 5 uM after 24 hrs by annexin V-FITC/propidium iodide staining based flow cytometric analysis (reference value: 4.48%); type: functional
[8] = system: DU-145; test: Induction of apoptosis in human DU145 cells assessed as dead cells at 1.25 uM after 24 hrs by annexin V-FITC/propidium iodide staining based flow cytometric analysis (reference value: 2.78%); type: functional
[9] = Cell cycle arrest in human DU145 cells assessed as accumulation at G2/M phase at 8 uM after 24 hrs by propidium iodide staining based flow cytometric analysis (reference value: 16.66%); type: functional; details: DU-145
[10] = system: DU-145; test: Induction of apoptosis in human DU145 cells assessed as […] deformation at 1.25 to 5 uM after 24 hrs by phase contrast microscopic analysis; type: functional, cell-based
[11] = system: DU-145; test: Induction of apoptosis in human DU145 cells assessed as viable cells at 1.25 uM after 24 hrs by annexin V-FITC/propidium iodide staining based flow cytometric analysis (reference value: 89.63%); type: functional; details: DU-145, 24 h, read-out: Activity
[12] = system: DU-145; test: Anticlonogenic activity against human DU145 cells assessed as inhibition of colony formation of cells incubated for 24 hrs followed by compound washout measured after 14 days by methylene-blue staining-based assay; type: functional, cell-based
[13] = system: DU-145; test: Induction of apoptosis in human DU145 cells assessed as cell shrinkage at 1.25 to 5 uM after 24 hrs by phase contrast microscopic analysis; type: functional, cell-based
[14] = Cell cycle arrest in human DU145 cells assessed as accumulation at S phase at 8 uM after 24 hrs by propidium iodide staining based flow cytometric analysis (reference value: 3.39%); type: functional; details: DU-145
[15] = Cell cycle arrest in human DU145 cells assessed as accumulation at G2/M phase at 2 uM after 24 hrs by propidium iodide staining based flow cytometric analysis (reference value: 16.66%); type: functional; details: DU-145
[16] = system: DU-145; test: Induction of apoptosis in human DU145 cells assessed as late apoptotic cells at 2.5 uM after 24 hrs by annexin V-FITC/propidium iodide staining based flow cytometric analysis (reference value: 4.48%); type: functional
[17] = system: DU-145; test: Induction of apoptosis in human DU145 cells assessed as early apoptotic cells at 2.5 uM after 24 hrs by annexin V-FITC/propidium iodide staining based flow cytometric analysis (reference value: 3.11%); type: functional
[18] = Cell cycle arrest in human DU145 cells assessed as accumulation at S phase at 4 uM after 24 hrs by propidium iodide staining based flow cytometric analysis (reference value: 3.39%); type: functional; details: DU-145
[19] = system: DU-145; test: Induction of apoptosis in human DU145 cells after 24 hrs by annexin V-FITC/propidium iodide staining based flow cytometric analysis; type: functional, cell-based
[20] = system: DU-145; test: Induction of apoptosis in human DU145 cells assessed as ROS production after 24 hrs by carboxy-DCFDA based fluorescence microscopic analysis; type: functional, cell-based
[21] = Cell cycle arrest in human DU145 cells assessed as accumulation at G1 phase at 4 uM after 24 hrs by propidium iodide staining based flow cytometric analysis (reference value: 78.18%); type: functional; details: DU-145
[22] = system: DU-145; test: Induction of apoptosis in human DU145 cells assessed as dead cells at 2.5 uM after 24 hrs by annexin V-FITC/propidium iodide staining based flow cytometric analysis (reference value: 2.78%); type: functional
[23] = system: DU-145; test: Induction of DNA fragmentation in human DU145 cells assessed as smear formation at 1.25 to 2.5 uM after ethidium bromide staining based agarose gel electrophoresis; type: functional, cell-based
[24] = system: DU-145; test: Induction of apoptosis in human DU145 cells assessed as viable cells at 5 uM after 24 hrs by annexin V-FITC/propidium iodide staining based flow cytometric analysis (reference value: 89.63%); type: functional; details: DU-145, 24 h, read-out: Activity
[25] = system: DU-145; test: Induction of apoptosis in human DU145 cells assessed as late apoptotic cells at 1.25 uM after 24 hrs by annexin V-FITC/propidium iodide staining based flow cytometric analysis (reference value: 4.48%); type: functional
[26] = system: DU-145; test: Induction of apoptosis in human DU145 cells assessed as apoptotic bodies at 1.25 to 5 uM after 48 hrs by acridine orange/ethidium bromide staining based fluorescent microscopic analysis; type: functional, cell-based
[27] = Cell cycle arrest in human DU145 cells assessed as accumulation at G1 phase at 8 uM after 24 hrs by propidium iodide staining based flow cytometric analysis (reference value: 78.18%); type: functional; details: DU-145
[28] = system: DU-145; test: Induction of apoptosis in human DU145 cells assessed as membrane blebbing at 1.25 to 5 uM after 48 hrs by acridine orange/ethidium bromide staining based fluorescent microscopic analysis; type: functional, cell-based
[29] = system: DU-145; test: Induction of apoptosis in human DU145 cells assessed as condensed,pyknotic and fragmented nuclei at 1.25 to 5 uM after 48 hrs by DAPI staining based fluorescent microscopic analysis; type: functional, cell-based
[30] = system: DU-145; test: Induction of apoptosis in human DU145 cells assessed as cell shrinkage at 1.25 to 5 uM after 48 hrs by acridine orange/ethidium bromide staining based fluorescent microscopic analysis; type: functional
[31] = Cell cycle arrest in human DU145 cells assessed as accumulation at G1 phase at 2 uM after 24 hrs by propidium iodide staining based flow cytometric analysis (reference value: 78.18%); type: functional; details: DU-145
[32] = Cell cycle arrest in human DU145 cells assessed as accumulation at S phase at 2 uM after 24 hrs by propidium iodide staining based flow cytometric analysis (reference value: 3.39%); type: functional; details: DU-145
[33] = system: DU-145; test: Induction of apoptosis in human DU145 cells assessed as loss of mitochondrial membrane potential at 5 uM after 24 hrs by rhodamine 123 based spectrofluorometric analysis relative to control; type: functional
[34] = system: DU-145; test: Induction of apoptosis in human DU145 cells assessed as dead cells at 5 uM after 24 hrs by annexin V-FITC/propidium iodide staining based flow cytometric analysis (reference value: 2.78%); type: functional
[35] = system: DU-145; test: Induction of apoptosis in human DU145 cells assessed as reduction in viable cells at 1.25 to 5 uM after 24 hrs by phase contrast microscopic analysis; type: functional, cell-based
[36] = system: DU-145; test: Induction of apoptosis in human DU145 cells assessed as viable cells at 2.5 uM after 24 hrs by annexin V-FITC/propidium iodide staining based flow cytometric analysis (reference value: 89.63%); type: functional; details: DU-145, 24 h, read-out: Activity
[37] = system: DU-145; test: Induction of apoptosis in human DU145 cells assessed as early apoptotic cells at 5 uM after 24 hrs by annexin V-FITC/propidium iodide staining based flow cytometric analysis (reference value: 3.11%); type: functional
[38] = system: DU-145; test: Induction of DNA fragmentation in human DU145 cells assessed as DNA ladder formation at 5 uM after ethidium bromide staining based agarose gel electrophoresis; type: functional, cell-based
[39] = system: DU-145; test: Induction of apoptosis in human DU145 cells assessed as apoptotic bodies at 1.25 to 5 uM after 24 hrs by phase contrast microscopic analysis; type: functional, cell-based
[40] = system: DU-145; test: Induction of apoptosis in human DU145 cells assessed as early apoptotic cells at 1.25 uM after 24 hrs by annexin V-FITC/propidium iodide staining based flow cytometric analysis (reference value: 3.11%); type: functional
[41] = system: DU-145; test: Induction of apoptosis in human DU145 cells assessed as chromatin condensation at 1.25 to 5 uM after 48 hrs by acridine orange/ethidium bromide staining based fluorescent microscopic analysis; type: functional, cell-based
[42] = Cell cycle arrest in human DU145 cells assessed as accumulation at G2/M phase at 4 uM after 24 hrs by propidium iodide staining based flow cytometric analysis (reference value: 16.66%); type: functional; details: DU-145
[43] = Selectivity index, ratio of IC50 for human RWPE1 cells to IC50 for human DU145 cells; type: functional

## O=C1N(Cc2ccc(Br)cc2)c2ccc(Cl)cc2C1(O)Cc1nnn[nH]1 (centres undefined)
[1]
  IC50: 74.5 µM
[2]
  IC50: 87.9 µM
[3]
  IC50: > 100 µM
[4]
  IC50: 19.5 µM
[5]
  IC50: 35.8 µM

## CCN1C(=O)C(O)(Cc2nnn[nH]2)c2cc(C)ccc21 (centres undefined)
[1]
  IC50: > 100 µM
[2]
  IC50: > 100 µM
[3]
  IC50: > 100 µM
[4]
  IC50: 14.6 µM
[5]
  IC50: > 100 µM
[6]
  IC50: > 100 µM

## O=C1N(Cc2ccccc2)c2ccc(Br)cc2C1(O)Cc1nnn[nH]1 (centres undefined)
[1]
  IC50: 39.6 µM
[2]
  IC50: 75.8 µM
[3]
  IC50: 96.1 µM
[4]
  IC50: 46.2 µM
[5]
  IC50: 74.4 µM

## CN1C(=O)C(O)(Cc2nnn[nH]2)c2cc(Br)ccc21 (centres undefined)
[1]
  IC50: > 100 µM
[2]
  IC50: > 100 µM
[3]
  IC50: 67.3 µM
[4]
  IC50: > 100 µM
[5]
  IC50: > 100 µM

## O=C1N(Cc2ccc(Br)cc2)c2ccc(Br)cc2C1(O)Cc1nnn[nH]1 (centres undefined)
[1]
  IC50: 88.8 µM
[2]
  IC50: > 100 µM
[3]
  IC50: 65.4 µM
[4]
  IC50: 59.6 µM
[5]
  IC50: > 100 µM

## O=C1N(Cc2ccccc2)c2ccc(Cl)cc2C1(O)Cc1nnn[nH]1 (centres undefined)
[1]
  IC50: > 100 µM
[2]
  IC50: > 100 µM
[3]
  IC50: 30.3 µM
[4]
  IC50: > 100 µM
[5]
  IC50: 100 µM

## CCN1C(=O)C(O)(Cc2nnn[nH]2)c2ccccc21 (centres undefined)
[1]
  IC50: > 100 µM
[2]
  IC50: > 100 µM
[3]
  IC50: > 100 µM
[4]
  IC50: > 100 µM
[5]
  IC50: > 100 µM

## Cc1ccc2c(c1)C(O)(Cc1nnn[nH]1)C(=O)N2Cc1ccccc1 (centres undefined)
[7]
  Activity: 12.59%
[8]
  Activity: 6.27%
[1]
  IC50: 91.5 µM
[2]
  IC50: 11.7 µM
[9]
  Activity: 72.8%
[3]
  IC50: > 100 µM
[10]
  Activity: Active
[4]
  IC50: 4.26 µM
[11]
  viability at 1.25 µM: 68.6%
[12]
  Activity: Dose-dependent effect
[13]
  Activity: Active
[5]
  IC50: 33.9 µM
[14]
  Activity: 7.34%
[15]
  Activity: 39.8%
[16]
  Activity: 11.6%
[17]
  Activity: 27%
[6]
  IC50: 20.9 µM
[18]
  Activity: 6.71%
[19]
  Activity: Dose-dependent effect
[20]
  Activity: Dose-dependent effect
[21]
  Activity: 36.3%
[22]
  Activity: 3.2%
[23]
  Activity: Active
[24]
  viability at 5 µM: 41.3%
[25]
  Activity: 8.51%
[26]
  Activity: Active
[27]
  Activity: 17%
[28]
  Activity: Active
[29]
  Activity: Active
[30]
  Activity: Active
[31]
  Activity: 44.8%
[32]
  Activity: 12.3%
[33]
  Activity: 45.4%
[34]
  Activity: 1.31%
[35]
  Activity: Active
[36]
  viability at 2.5 µM: 58.1%
[37]
  Activity: 44.77%
[38]
  Activity: Active
[39]
  Activity: Active
[40]
  Activity: 16.63%
[41]
  Activity: Active
[42]
  Activity: 52.8%
[43]
  Ratio IC50: 5

## O=c1[nH]cc(F)c(=O)[nH]1 [FLUOROURACIL]
[1]
  IC50: 19.8 µM
[2]
  IC50: 68.3 µM
[3]
  IC50: 45.4 µM
[4]
  IC50: 39.2 µM
[5]
  IC50: 7.59 µM
